Results as given in PMC6812009, “Covalent Aurora A regulation by the metabolic integrator coenzyme A” (Redox Biology, 2019).

What was measured:
Experiment in all cases: Kinase profiling screen (radioactive filter-binding assay)
Assay type in all cases: biochemical
S6K1 = S6K1 (Homo sapiens, UniProt P23443); details: 100 μM compound, 20 μM ATP; read-out: Kinase activity, % of activity in the absence of inhibitor
Procedure: (§1) Profiling of 117 protein kinases with CoA, dpCoA and ADP was carried out at the International Centre for Protein Kinase Profiling at the University of Dundee. Each compound was tested in vitro, in duplicate, at 100 μM final concentration using recombinant kinases, model substrates and optimal concentrations of ATP. Bacterially expressed full-length His-Aurora A was used to determine the IC50 value for CoA (in the presence or absence of DTT), dpCoA, ADP and desulfo-CoA. The assay was performed in the presence of 5 μM competing ATP. To examine whether the inhibitory effect of CoA on Aurora A is modulated by TPX2, IC50 values for CoA were also generated in the presence and absence of 1 μg TPX2 (residues 1–43) fragment.

PHKγ1 = PHKγ1 (Homo sapiens, UniProt Q16816); details: 100 μM compound, 50 μM ATP; read-out: Kinase activity, % of activity in the absence of inhibitor
Sequence of PHKγ1 (Q16816 whole entry): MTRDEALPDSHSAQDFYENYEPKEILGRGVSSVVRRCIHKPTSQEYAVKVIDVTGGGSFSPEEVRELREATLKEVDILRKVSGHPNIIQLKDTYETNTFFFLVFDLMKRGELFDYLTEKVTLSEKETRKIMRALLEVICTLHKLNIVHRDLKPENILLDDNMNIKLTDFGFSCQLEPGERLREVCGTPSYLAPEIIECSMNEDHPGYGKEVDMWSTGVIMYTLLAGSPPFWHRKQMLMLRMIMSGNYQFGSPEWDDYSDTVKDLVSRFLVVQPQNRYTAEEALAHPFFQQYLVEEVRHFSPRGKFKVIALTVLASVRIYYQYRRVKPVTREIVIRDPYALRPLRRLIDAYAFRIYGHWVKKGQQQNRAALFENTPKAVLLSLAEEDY
Procedure: as §1

EPH-A2 = EPH-A2 (Homo sapiens, UniProt P29317); details: 100 μM compound, 50 μM ATP; read-out: Kinase activity, % of activity in the absence of inhibitor
Sequence of EPH-A2 (P29317 24-976): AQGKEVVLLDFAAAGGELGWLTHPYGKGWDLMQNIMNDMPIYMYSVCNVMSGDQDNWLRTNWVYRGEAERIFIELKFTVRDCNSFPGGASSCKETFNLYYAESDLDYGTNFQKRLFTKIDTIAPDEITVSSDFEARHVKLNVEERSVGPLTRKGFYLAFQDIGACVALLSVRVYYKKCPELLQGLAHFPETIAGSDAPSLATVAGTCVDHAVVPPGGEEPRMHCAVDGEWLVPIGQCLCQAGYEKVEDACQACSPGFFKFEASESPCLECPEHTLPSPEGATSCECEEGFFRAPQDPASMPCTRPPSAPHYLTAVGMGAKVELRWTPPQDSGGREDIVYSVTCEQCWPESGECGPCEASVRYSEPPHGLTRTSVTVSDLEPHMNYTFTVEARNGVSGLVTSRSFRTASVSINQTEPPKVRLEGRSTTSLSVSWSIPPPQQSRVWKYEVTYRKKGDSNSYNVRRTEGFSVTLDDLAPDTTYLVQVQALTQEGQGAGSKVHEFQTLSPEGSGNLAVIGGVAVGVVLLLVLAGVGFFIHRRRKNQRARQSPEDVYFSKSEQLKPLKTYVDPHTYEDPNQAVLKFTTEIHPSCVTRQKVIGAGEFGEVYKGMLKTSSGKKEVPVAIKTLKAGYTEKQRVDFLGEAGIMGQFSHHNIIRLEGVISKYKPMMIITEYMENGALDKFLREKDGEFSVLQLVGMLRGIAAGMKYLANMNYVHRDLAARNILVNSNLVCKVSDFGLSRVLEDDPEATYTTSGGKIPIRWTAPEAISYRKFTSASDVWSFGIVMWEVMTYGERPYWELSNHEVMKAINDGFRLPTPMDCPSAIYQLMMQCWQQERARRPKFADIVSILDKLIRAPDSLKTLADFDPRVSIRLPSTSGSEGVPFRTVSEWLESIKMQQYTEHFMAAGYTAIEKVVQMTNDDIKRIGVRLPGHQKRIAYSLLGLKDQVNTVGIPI
Procedure: as §1

ERK8 = target: T1, ERK8 (Homo sapiens, UniProt Q8TD08); details: 100 μM compound, 5 μM ATP; read-out: Kinase activity, % of activity in the absence of inhibitor
T1 sequence (Q8TD08 1-544): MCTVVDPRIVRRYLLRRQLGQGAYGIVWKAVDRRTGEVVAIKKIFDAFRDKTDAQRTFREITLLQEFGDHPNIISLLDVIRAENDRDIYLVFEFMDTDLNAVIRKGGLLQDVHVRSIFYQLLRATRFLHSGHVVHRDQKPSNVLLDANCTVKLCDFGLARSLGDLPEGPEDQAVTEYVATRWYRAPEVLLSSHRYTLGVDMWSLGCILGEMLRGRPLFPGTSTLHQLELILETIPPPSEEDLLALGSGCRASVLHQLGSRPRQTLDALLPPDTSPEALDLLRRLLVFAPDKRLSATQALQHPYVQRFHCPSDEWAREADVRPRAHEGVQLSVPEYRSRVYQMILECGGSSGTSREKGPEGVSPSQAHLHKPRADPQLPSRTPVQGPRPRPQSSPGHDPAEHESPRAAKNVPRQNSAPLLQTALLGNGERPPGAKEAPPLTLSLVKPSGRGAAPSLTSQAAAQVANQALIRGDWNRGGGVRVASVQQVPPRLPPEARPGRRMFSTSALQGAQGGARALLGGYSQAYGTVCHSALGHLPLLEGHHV
Procedure: as §1

PIM3 = PIM3 (Homo sapiens, UniProt Q86V86); details: 100 μM compound, 20 μM ATP; read-out: Kinase activity, % of activity in the absence of inhibitor
Procedure: as §1

NUAK1 = target: T2, NUAK1 (Homo sapiens, UniProt O60285); details: 100 μM compound, 20 μM ATP; read-out: Kinase activity, % of activity in the absence of inhibitor
T2 sequence (O60285 1-661): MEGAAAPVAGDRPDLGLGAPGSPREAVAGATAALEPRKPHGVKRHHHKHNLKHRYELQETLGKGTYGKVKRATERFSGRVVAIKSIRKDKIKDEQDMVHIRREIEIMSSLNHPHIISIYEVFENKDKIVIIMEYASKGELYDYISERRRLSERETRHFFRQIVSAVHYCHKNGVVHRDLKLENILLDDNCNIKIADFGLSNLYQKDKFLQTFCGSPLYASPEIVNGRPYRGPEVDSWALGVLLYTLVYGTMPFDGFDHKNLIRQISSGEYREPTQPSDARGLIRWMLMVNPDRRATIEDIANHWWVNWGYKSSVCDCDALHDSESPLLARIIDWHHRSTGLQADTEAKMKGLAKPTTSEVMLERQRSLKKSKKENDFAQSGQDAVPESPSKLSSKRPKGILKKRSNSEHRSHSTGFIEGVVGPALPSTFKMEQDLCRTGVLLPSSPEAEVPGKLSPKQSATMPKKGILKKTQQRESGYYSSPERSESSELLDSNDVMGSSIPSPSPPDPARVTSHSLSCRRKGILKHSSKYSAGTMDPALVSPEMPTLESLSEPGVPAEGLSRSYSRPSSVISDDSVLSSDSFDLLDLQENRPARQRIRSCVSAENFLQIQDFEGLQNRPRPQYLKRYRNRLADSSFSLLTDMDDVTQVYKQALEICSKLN
Procedure: as §1

p38α MAPK = p38α MAPK (Homo sapiens, UniProt Q16539); details: 100 μM compound, 50 μM ATP; read-out: Kinase activity, % of activity in the absence of inhibitor
Procedure: as §1

SYK = SYK (Homo sapiens, UniProt P43405); details: 100 μM compound, 20 μM ATP; read-out: Kinase activity, % of activity in the absence of inhibitor
Procedure: as §1

DYRK1A = DYRK1A (Homo sapiens, UniProt Q13627); details: 100 μM compound, 50 μM ATP; read-out: Kinase activity, % of activity in the absence of inhibitor
Procedure: as §1

DYRK2 = target: T3, DYRK2 (Homo sapiens, UniProt Q92630); details: 100 μM compound, 50 μM ATP; read-out: Kinase activity, % of activity in the absence of inhibitor
T3 sequence (Q92630 1-601): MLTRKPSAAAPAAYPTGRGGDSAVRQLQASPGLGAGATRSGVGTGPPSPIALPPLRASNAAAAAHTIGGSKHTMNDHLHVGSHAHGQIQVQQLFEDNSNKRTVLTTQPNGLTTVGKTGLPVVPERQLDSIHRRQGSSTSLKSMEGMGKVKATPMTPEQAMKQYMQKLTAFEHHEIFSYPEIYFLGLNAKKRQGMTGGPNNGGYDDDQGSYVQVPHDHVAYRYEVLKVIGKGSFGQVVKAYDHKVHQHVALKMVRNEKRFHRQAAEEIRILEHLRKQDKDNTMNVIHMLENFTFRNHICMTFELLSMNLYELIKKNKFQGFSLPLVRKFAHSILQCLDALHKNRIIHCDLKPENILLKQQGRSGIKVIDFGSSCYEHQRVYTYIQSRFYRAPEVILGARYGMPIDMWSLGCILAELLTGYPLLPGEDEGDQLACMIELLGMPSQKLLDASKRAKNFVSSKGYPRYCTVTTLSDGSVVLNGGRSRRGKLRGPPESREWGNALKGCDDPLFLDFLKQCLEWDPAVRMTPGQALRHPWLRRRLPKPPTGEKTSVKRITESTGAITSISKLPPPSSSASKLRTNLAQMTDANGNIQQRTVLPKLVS
Procedure: as §1

FGF-R1 = FGF-R1 (Homo sapiens, UniProt P11362); details: for activity at 100 µM: 100 μM compound, 20 μM ATP, read-out: Kinase activity, % of activity in the absence of inhibitor
Sequence of FGF-R1 (P11362 22-822): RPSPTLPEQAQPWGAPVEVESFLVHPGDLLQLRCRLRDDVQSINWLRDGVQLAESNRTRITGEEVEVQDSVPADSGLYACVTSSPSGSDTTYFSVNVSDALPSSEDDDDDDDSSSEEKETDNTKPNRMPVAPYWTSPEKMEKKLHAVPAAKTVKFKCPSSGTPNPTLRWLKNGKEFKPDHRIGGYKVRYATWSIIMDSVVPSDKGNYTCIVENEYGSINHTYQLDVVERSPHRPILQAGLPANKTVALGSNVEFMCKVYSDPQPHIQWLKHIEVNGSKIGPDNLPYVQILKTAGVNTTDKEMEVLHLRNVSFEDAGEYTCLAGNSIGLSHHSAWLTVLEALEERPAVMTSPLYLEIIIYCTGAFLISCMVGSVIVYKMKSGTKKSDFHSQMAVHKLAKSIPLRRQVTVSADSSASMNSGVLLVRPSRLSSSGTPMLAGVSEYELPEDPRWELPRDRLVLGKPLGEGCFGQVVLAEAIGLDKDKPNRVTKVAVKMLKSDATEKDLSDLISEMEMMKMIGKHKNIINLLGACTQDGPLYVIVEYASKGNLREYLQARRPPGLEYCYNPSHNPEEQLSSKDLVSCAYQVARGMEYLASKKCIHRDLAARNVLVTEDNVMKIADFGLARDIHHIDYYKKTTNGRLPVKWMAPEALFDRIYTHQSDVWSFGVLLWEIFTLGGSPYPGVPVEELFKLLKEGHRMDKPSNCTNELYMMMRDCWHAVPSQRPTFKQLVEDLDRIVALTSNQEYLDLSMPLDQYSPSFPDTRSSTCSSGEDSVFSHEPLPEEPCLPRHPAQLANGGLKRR
Procedure: as §1

HIPK2 = HIPK2 (Homo sapiens, UniProt Q9H2X6); details: 100 μM compound, 5 μM ATP; read-out: Kinase activity, % of activity in the absence of inhibitor
Sequence of HIPK2 (Q9H2X6 whole entry): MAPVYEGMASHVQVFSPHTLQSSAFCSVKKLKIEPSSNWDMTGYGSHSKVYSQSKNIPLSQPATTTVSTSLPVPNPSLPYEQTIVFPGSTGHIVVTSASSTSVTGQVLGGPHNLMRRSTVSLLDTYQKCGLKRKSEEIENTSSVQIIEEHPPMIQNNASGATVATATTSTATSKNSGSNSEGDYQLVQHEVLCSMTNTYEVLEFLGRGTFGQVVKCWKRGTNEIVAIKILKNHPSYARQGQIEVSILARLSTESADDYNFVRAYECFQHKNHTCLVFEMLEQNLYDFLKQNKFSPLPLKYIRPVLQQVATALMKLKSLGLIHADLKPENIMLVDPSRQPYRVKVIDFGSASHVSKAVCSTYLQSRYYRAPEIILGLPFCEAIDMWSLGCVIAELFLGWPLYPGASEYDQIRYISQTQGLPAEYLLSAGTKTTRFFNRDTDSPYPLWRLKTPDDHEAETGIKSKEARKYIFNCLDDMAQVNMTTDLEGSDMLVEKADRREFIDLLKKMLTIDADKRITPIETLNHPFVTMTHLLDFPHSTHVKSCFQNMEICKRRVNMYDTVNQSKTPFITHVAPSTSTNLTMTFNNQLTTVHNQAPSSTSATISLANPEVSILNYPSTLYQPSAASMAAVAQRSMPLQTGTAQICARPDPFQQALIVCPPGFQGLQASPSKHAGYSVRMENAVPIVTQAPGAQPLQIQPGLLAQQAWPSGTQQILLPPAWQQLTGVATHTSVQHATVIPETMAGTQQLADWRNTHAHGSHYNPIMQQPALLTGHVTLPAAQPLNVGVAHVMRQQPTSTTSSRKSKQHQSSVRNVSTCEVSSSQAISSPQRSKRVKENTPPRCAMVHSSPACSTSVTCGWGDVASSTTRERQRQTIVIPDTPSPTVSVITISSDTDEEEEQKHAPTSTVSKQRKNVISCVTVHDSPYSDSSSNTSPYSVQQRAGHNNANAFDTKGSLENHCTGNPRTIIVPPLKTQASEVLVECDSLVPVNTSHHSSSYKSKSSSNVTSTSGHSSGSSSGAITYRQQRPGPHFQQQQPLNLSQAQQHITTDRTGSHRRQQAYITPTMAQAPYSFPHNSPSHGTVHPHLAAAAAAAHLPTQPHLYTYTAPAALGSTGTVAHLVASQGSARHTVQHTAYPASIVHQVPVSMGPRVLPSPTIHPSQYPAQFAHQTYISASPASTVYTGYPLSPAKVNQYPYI
Procedure: as §1

JAK2 = JAK2 (Homo sapiens, UniProt O60674); details: 100 μM compound, 5 μM ATP; read-out: Kinase activity, % of activity in the absence of inhibitor
Sequence of JAK2 (O60674 whole entry): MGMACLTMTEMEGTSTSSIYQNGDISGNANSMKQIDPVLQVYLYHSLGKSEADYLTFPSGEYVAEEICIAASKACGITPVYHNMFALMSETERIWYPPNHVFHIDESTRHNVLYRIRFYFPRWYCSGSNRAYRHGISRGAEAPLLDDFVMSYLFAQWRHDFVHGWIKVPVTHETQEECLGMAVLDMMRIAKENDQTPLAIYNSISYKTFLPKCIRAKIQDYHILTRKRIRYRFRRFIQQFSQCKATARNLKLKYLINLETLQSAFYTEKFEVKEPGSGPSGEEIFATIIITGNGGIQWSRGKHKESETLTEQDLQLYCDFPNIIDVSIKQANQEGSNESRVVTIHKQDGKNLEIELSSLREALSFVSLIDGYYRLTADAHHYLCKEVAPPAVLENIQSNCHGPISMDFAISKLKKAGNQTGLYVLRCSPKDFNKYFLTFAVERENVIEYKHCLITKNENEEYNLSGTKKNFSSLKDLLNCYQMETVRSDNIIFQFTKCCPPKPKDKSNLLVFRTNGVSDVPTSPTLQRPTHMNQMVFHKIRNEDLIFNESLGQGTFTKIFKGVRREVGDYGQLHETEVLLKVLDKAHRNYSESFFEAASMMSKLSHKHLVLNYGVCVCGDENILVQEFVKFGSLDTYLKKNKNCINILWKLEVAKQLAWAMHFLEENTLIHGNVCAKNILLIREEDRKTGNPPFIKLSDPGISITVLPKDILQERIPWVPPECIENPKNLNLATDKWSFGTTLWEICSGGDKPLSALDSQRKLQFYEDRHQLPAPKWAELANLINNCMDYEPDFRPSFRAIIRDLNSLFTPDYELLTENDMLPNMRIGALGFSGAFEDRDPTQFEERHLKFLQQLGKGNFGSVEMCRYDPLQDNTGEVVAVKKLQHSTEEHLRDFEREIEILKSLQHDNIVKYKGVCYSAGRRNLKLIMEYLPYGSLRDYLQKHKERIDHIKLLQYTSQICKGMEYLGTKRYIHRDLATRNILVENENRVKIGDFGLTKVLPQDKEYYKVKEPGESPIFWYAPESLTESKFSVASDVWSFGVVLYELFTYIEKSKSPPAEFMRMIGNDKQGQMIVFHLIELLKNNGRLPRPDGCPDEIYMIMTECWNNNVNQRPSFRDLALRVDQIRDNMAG
Procedure: as §1

Compound | activity at 100 µM (S6K1) [%] | activity at 100 µM (PHKγ1) [%] | activity at 100 µM (EPH-A2) [%] | activity at 100 µM (ERK8) [%] | activity at 100 µM (PIM3) [%] | activity at 100 µM (NUAK1) [%] | activity at 100 µM (p38α MAPK) [%] | activity at 100 µM (SYK) [%] | activity at 100 µM (DYRK1A) [%] | activity at 100 µM (DYRK2) [%] | activity at 100 µM (FGF-R1) [%] | FGFR1 inhibition (in words) (FGF-R1; kinase profiling, 100 μM) | activity at 100 µM (HIPK2) [%] | activity at 100 µM (JAK2) [%]
CC(C)(COP(=O)(O)OP(=O)(O)OC[C@H]1O[C@@H](n2cnc3c(N)ncnc32)[C@H](O)[C@@H]1OP(=O)(O)O)[C@@H](O)C(=O)NCCC(=O)NCCS [CoA, Coenzyme A] | 89.1 | 105 | 102 | 101 | 122 | 98.3 | 112 | 98.3 | 93.1 | 102 | 60 | modestly inhibited | 153 | 106
Nc1ncnc2c1ncn2C1OC(COP(=O)(O)OP(=O)(O)O)C(O)C1O (stereo not shown) [ADP] | 35.5 | 75.6 | 45 | 16.6 | 36.1 | 32.4 | 60.3 | 70.9 | 75.9 | 42.4 | 41.7 |  | 16.5 | 7.1
CC(C)(COP(=O)(O)OP(=O)(O)OCC1OC(n2cnc3c(N)ncnc32)C(O)C1O)C(O)C(=O)NCCC(=O)NCCS (stereo not shown) [dpCoA, dephospho-CoA] | 30.5 | 90.9 | 99.2 | 38.5 | 96.7 | 68.3 | 87.7 | 106 | 90.2 | 77 | 31.4 |  | 73.4 | 62.5
